These results are taken from patent publication US10092591B2, “Methods and compositions for the treatment of ischemic injury to tissue using therapeutic hypothermia” (University of Alaska Fairbanks, priority 2014, dated 2018).

Data set [1] deals with Male Sprague-Dawley rats. The data set is described as follows: Continuous CHA delivery through iPRECIO pumps at Ta 16° C. or 25° C., with 8-SPT injection. It is filed as in vivo, rat. To be noted: for mean minimum Tb: continuous CHA via SQ minipump, equivalent to 1 mg/kg every 4 hr, 24 hr. The protocol: To determine if the effects of CHA on heart rate were due to direct effects of CHA on the heart or to the effects of tissue temperature, programmable minipumps were employed to deliver CHA continuously for 24 hr at an ambient temperature of 25° C. and 16° C. […] For these experiments a separate group of rats was instrumented with programmable iPRECIO® pumps (DSI, St. Paul, Minn.). CHA was dissolved in 25% (w/v) hydroxypropyl-β-cyclodextrin (CD) in sterile water and 8-SPT was dissolved in 0.9% saline. Pumps delivered the same mass of CHA as in the first experiment (6 mg/kg over a 24 hr period), however, in this case CHA was delivered at a constant rate of 30 μL/hr. Heart rate (HR) and hemoglobin saturation (sO2) was monitored using a pulse oximeter every 10 min for 1 hr following a single injection of 8-SPT (25 mg/kg, i.p.) or vehicle as indicated. As before, animals in both treatment and control groups were moved to an ambient temperature (Ta) of 16° C. or 25° C. the day before the experiment and remained at this Ta until return to a Ta of 20° C., 4 hr after the end of drug delivery. Drug and vehicle treatments were administered to all animals using a balanced cross-over design. At least 1 week separated CHA and vehicle (CD) treatment and 1 hr separated 8-SPT and vehicle (saline) injections. A pulse oximeter (Vet/Ox […], Model 72042A3 Sensor Devices Inc., Lancaster, Pa.) was used to monitor heart rate (HR) and sO2. Pulse oximetry was acquired via a sensor on the paw.

For data set [2] the following is noted: rabbit; Liu G S et al., 1991; cited from earlier work.
The subject of data set [3] is Male Sprague-Dawley rats. The data set is described as follows: Sustained hypothermia in conscious rats, drug delivery via sequential i.p. injections. It is filed as in vivo.
In data set [4] the test system is rats subjected to 8 min of asphyxial cardiac arrest. The data set is described as follows: Therapeutic hypothermia in rats subjected to 8 min asphyxial cardiac arrest. It is filed as in vivo, rat. The protocol: Rats aged 68-75 days were subjected to 8 min of asphyxial cardiac arrest and animals that were resuscitated within 120 sec and met additional inclusion criteria 60 min after ROSC (Table 1) were randomly allocated to a therapeutic hypothermia (TH) or a normothermic control (NC) group using a computer-generated randomization schedule without knowledge of outcome. Treatment commenced 70 min after restoration of spontaneous circulation (ROSC).
Animals assigned to the TH group were moved to 16° C. and CHA and 8-SPT delivered as described above for Drug delivery via sequential IP injections. Animals assigned to the NC group were moved to a neonatal incubator set to 29° C. and vehicles (PB and saline) delivered as described above for the control group. At the end of 24 hr the rats were moved to and housed an ambient temperature of 20° C. for 7 days until they were euthanized for tissue collection. Body temperature was monitored prior to each injection throughout treatment and daily thereafter using sc IPTT-300 transponders (BioMedic Data Systems, Inc. Seaford, Del.).
ACA was induced as described by Dave et al., 2006. Animals were anesthetized with 5% isofluorane and a 30:70 mixture of O2 and N2O followed by endotracheal intubation and mechanical ventilation. The femoral vein and artery were cannulated for continuous blood pressure monitoring and blood gas analysis. ECG leads were attached to the limbs. Physiological variables, including but not limited to PaCO2, PaO2, and pH were maintained within normal limits by adjusting respiratory rate and volume. MABP and ECG were monitored continuously. Temporalis muscle and rectal temperatures were maintained at 36.5-37.5° C. by heating lamps and Omega (Stamford, Conn.) T-CSC32 temperature controllers. To induce cardiac arrest, vecuronium (1 mg/kg) was injected I.V. and apnea was induced by disconnecting the ventilator from the endotracheal tube. Resuscitation was initiated by reconnecting the ventilator, administering epinephrine (0.01 mg/kg, I.V.) and sodium bicarbonate (1 mg/kg, I.V.) mechanically ventilating with 100% O2 at a rate of 80 bpm and manual chest compressions until MABP reached 50 mm Hg and was maintained by a spontaneously beating heart for more than 10 sec. After 10 min of ROSC, ventilation was decreased to 60 bpm and O2 lowered to 30%. Naïve animals were subjected to similar surgical procedures except that the ventilator was not disconnected from the endotracheal tube.
Post-operative (post-op) rats subjected to 6 min and 8 min CA and not assigned to hypothermia experiments were placed in a neonatal incubator overnight with only water provided (0.9% saline, I.P. based off […] body weight was injected at the end of surgery to prevent dehydration). After 8-16 hr, animals were fed, weighed, cleaned, and had neurological deficit scores (NDS) analyzed daily for 7 days beginning 2 hr post ROSC. Rats were fed a 50:50 mix of rodent chow and sugar mixed with water to create a soup, which was placed into small petri dishes to allow animals to self-feed. Animals that were unable to feed themselves were assisted via spoon-feeding. Spoon-feeding involved using a gavage needle and a 3 cc syringe to slowly and carefully inject the liquid soup material into the rat's mouth allowing their “swallow-reflex” to determine how much food was given.
Behavioral Neurological Deficit Scores (NDS) were taken daily for 7 days after asphyxial cardiac arrest to assess injury. The total NDS consists of five components: consciousness and respiration, cranial nerve function, motor function, sensory function, and coordination (leg/tail movement, cleaning, depth perception, and righting reflex) as previously described in Katz et al., 1995). The NDS range is a scale between 0 (normal function) to 100 (brain dead). […]

The test system of data set [5] is arctic ground squirrel (AGS). The data set is described as follows: CHA-induced torpor and hypothermic response in arctic ground squirrel. The settings on record: CHA 0.1 mg/kg i.p.; trough vs peak in euthermic Tb,sc; p<0.05, n=6; FIG. 2B. It is filed as in vivo. An excerpt:
Adenosine is a neuroprotective by-product of cellular metabolism that accumulates and is released from the brain during traumatic events (Dunwiddie and Masino, 2001). Under nonpathologic conditions, adenosine functions as a bioenergetic network regulator (Boison et al., 2011), and as a neuromodulator with key roles in sleep, thermoregulation and hibernation (Drew and Jinka, 2012) via a family of G protein-coupled receptors (GPCR). Torpor onset in the arctic ground squirrel (AGS) is regulated within the CNS by A1AR signaling and depends on a seasonal change in sensitivity to agonists (Jinka et al., 2011). […] Moreover, CHA-induced torpor is similar to spontaneous torpor with regard to the magnitude and temporal profile of metabolic suppression and Tb decline. A seasonally regulated decrease in Tb during rest in euthermic (non-hibernating) AGS predicts onset of torpor and an increased hypothermic response to CHA. Thus, Tb in animals at rest is a biomarker of enhanced sensitivity to A1AR signaling (FIG. 2). This relationship between Tb and sensitivity to CHA is observed in rats as well as in AGS as disclosed herein.
Spontaneous torpor is indicated by abrupt decreases in Tb,sc below about 30° C.

The subject of data set [6] is dietary restricted (DR) rats. The data set is described as follows: Induction of hypothermia by intermittent CHA and 8-SPT in ad libitum fed and dietary restricted rats. It is filed as in vivo, rat. As for the experimental part:
First, shivering is alleviated through stimulation of central A1AR. Second, the Tb minimum and rate of cooling following stimulation of A1AR in the CNS can be controlled through manipulation of ambient temperature without external or internal cooling. These principles were used to develop methods for inducing hypothermia in dietary restricted (DR) rats (FIG. 3B). In FIG. 3, the magnitude and rate of cooling was controlled by adjusting ambient temperature (i.e., 16° C.) and regulating sensitivity to CHA through DR (every other day feeding, see FIG. 3B). Peripheral side effects were minimized by co-administration of 8-SPT (2.5 mg/kg i.p.) 15 min prior to CHA (0.5 mg/kg, i.p.). […].

Data set [7] relates to arctic ground squirrel (AGS). To be noted: CHA i.p. or into the lateral ventricle (icv), cited from earlier work.
The conditions of data set [8]: stated as approximated by the 4 hr injection interval; cited from earlier work.
Where [9] appears, read: 8-SPT 25 mg/kg i.p. in CHA treated animals, Ta 25° C.

Read-outs that look alike come from different tables or passages of the source. Bounds are passed on as bounds.

The term half-life denotes the time needed for the level to fall by half in the phase considered.

Consider `Cn1c(=O)c2[nH]c(-c3ccc(S(=O)(=O)O)cc3)nc2n(C)c1=O` [8-SPT, 8-p-sulfophenyltheophylline], for which the “influence on Tb” value is on record as “no influence on Tb” in data set [1] (8-SPT 25 mg/kg i.p. in CHA treated animals, Ta 16° C.) and “no influence on Tb” in data set [1] (setting [9]). For the same compound, the heart rate entry in data set [1] (setting [9]) is on record as “small, but significant increase”. Further, the “increase in heart rate” value in data set [1] (8-SPT 25 mg/kg i.p. in animals treated with continuous CHA, Ta 16° C.) turned out to be 2 fold. Further, the “heart rate in control animals” value in data set [1] (8-SPT in control (CD treated) animals, Ta 16° C., saline vehicle did the same) is “increased heart rate”. Also, in data set [1] (8-SPT in control (CD treated) animals, Ta 25° C.), the “heart rate or Tb in control animals” value is on record as “no effect on heart rate or Tb”. Besides, in data set [1] (after 8-SPT 25 mg/kg i.p., Ta 16° C.), the “time for effects of 8-SPT to subside” value was at most 60 min. Also, the half-life in data set [2] is 0.75 h.
Regarding `OC[C@H]1O[C@@H](n2cnc3c(NC4CCCCC4)ncnc32)[C@H](O)[C@@H]1O` [CHA, N^6-cyclohexyladenosine], the “Tb on repeated injection” value in data set [3] (CHA 1.0 mg/kg i.p. at 4 hr intervals, 6 injections, 8-SPT 15 min prior, Ta 16° C.) is “steady minimum in Tb after the fourth injection”. In addition, the “Tb decreased to” value in data set [3] (CHA 1.0 mg/kg i.p., 8-SPT 25 mg/kg i.p. 15 min prior, Ta 16° C., FIG. 4A) was determined as 33 °C. Also, the “time to decrease of Tb to 33° C.” value in data set [3] (CHA 1.0 mg/kg i.p., 8-SPT 15 min prior, Ta 16° C.) is at most 1 h. Besides, the “heart rate at 24 hr” value in data set [3] (CHA-treated rats, 4 hr after last 8-SPT and CHA injection, FIG. 4C) was “slight, but statistically significant bradycardia”. Further, the “time to rewarm after moving to Ta of 20° C.” value in data set [3] (after 6 injections of CHA and 8-SPT, no other means of rewarming) is at most 3.5 h. Besides, the “adverse events after rewarming” value in data set [3] (after 24 hr CHA and 8-SPT at Ta 16° C.) is reported as “without evidence of significant adverse events”. Further, the “heart rate 5.5 hr after the last CHA injection” value in data set [3] (after rewarming, FIG. 4C) was “remained significantly elevated”. In addition, the “neurological deficit scores (NDS)” value in data set [3] (during hypothermia, FIG. 4B) is “increased”. Further, the sO2 entry in data set [1] (continuous CHA at Ta 16° C. and 25° C.) is reported as “no effect”. In addition, the heart rate result in data set [1] (continuous CHA at Ta 16° C. and 25° C. vs CD vehicle, p<0.01) is reported as “decreased”. In addition, the “mean minimum Tb” value in data set [1] (Ta 16° C.) is 29.3±0.3 °C. Further, the “mean minimum Tb” value in data set [1] (Ta 25° C.) is 35.6±0.12 °C. Besides, the “number of healthy neurons per mm of CA1 (mean±SEM)” value in data set [4] (TH group n=3, 8 days after 8 min asphyxial CA, naïve 180.8±12.3, normothermic control 47.8) is reported as 135.5±4.6. For the same compound, the “survival to 8 days” value in data set [4] (TH group, n=3, 1 of 3 survived in normothermic control group) stood at 3 rats. Also, in data set [4] (TH group, n=3), the “individual Tb minima” value was determined as 29.7±0.3 °C and the “time to Tb of 31.0 to 31.6° C. after CHA injection” value was at most 3 h. For the same compound, in data set [4] (TH group, transfer 4 hr after last CHA injection), the “time to rewarm without intervention after transfer to Ta of 20° C.” value is at most 5 h. Moreover, the “time at which Tb reached a minimum after ROSC” value in data set [4] (cooling initiated 70 min post ROSC) was 12 h. The post-operative recovery result in data set [4] (hypothermia group) was “recovered without need for post-op care”. Moreover, in data set [5], the “maximal response to a low (non-torpor inducing) dose” value is “greater when tested during a trough than when tested during a peak”. In data set [6] (dietary restriction (every other day feeding) vs ad libitum, CHA 0.5 mg/kg with 8-SPT), the “magnitude of cooling at a given dose” value was “enhanced following DR”. Also, the “Tb in conscious rats” value in data set [6] (repeated co-administration: 8-SPT 2.5 mg/kg i.p. 15 min prior to CHA 0.5 mg/kg i.p., 4 hr intervals, Ta 16° C.) is listed as “immediate decrease in Tb”. Moreover, the “torpor induction in summer” value in data set [7] (summer) is listed as “not in summer”. The “torpor induction in winter” value in data set [7] (winter) is “induces torpor”. In addition, in data set [8], the half-life was around 4 h.
